# Key:
# [1] = tested on: phospholipid vesicles (PC, PG, PE-PG mix, E. coli total, E. coli polar); experiment: Vesicle membrane binding assay (FP), comparison across the five vesicle types; details: SSA 0.15 mM, in words
# Text: For intrinsically fluorescent SSAs 5, 6 and 8–12, FP titration experiments enabled the observation of SSA: phospholipid vesicle interactions. Here, an increase in FP value indicates an increase in the apparent size of the SSA as it interacts with the phospholipid vesicle.
# The results of these studies have been summarised for convenience in Table 3 however, specific SSA: phospholipid vesicle interactions are also exemplified within Fig. 8. […] Here phospholipid vesicle selectivity appears to be driven by the presence of a methyl substituent appended from the benzothiazole unit, in addition to a urea-methyl/ethyl spacer-anionic functionality. Interesting the presence of the thiourea group, increasing SSA […] and increasing hydrogen bond donor acidity, while increasing the levels of vesicle interaction overall, decreased any specific SSA selectivity. […]
# Fluorescence polarisation: Lipid films were resuspended in Buffer (150 mM KCl, 10 mM HEPES, pH 7.4, 2 mM EGTA) and subjected to 9 freeze-thaw cycles in liquid nitrogen and extruded 20 times through a 200 nm polycarbonate membrane. Black bottom 96-well plates were prepared by serially diluting desired vesicle solution across the plate, the appropriate SSA solution (100 µL, 0.15 mM) was added to each well to give a total well volume of 200 µL. Fluorescent SSA solutions were set to a FP value of 100 mP. Data were acquired in endpoint mode. […]
# 1H NMR CPMG: 1H NMR CPMG3,4 spectra were obtained with a Bruker Avance III […] spectrometer equipped with a TCIP cryoprobe at 298 K. Samples were supplemented with 5 % D 2O and 0.02 mM 4,4-dimethyl4-silapentane-1-sulfonic acid (DSS). […]
# The P1 pulses were 9 µs at a power of 7.9 W. Presaturation was applied between acquisitions for 100 ms at a power level of 280 mW and acquisition was carried out of 85 2 µs. Water […]
# 180 o pulses of 1 ms. Repetition times were chosen to achieve suitable water suppression with the presat and watergate sequences used in 95 % H2O solution. The length of the CPMG element was chosen to achieve good differentiation between unbound and strongly bound ligands. Data was collected with 16,384 points and a spectral width of 16.0242 ppm, receiver gain was set to 128, with 512 scans, 8 dummy scans and an acquisition time of 0.85 s. Data was processed using MestreNova software. All spectra were automatically phased, baselined corrected using a polynomial function and calibrated to the centre of the DSS peak.
# Fitting of 1H NMR CPMG data: The data was fit to Michaelis Menten and Hill plot models and compared through R2 analysis using Origin 2022 software,5 growth/sigmoidal category, Hill/MichaelisMenten function, Levenberg Marquardt iteration algorithm. Vmax fixed to 100 % as this was the greatest proportion of SSA that could be coordinated to the nanodiscs. […]
# [2] = tested on: calcein loaded phospholipid vesicles (PC, PG, PE-PG mix, E. coli total, E. coli polar); experiment: Synthetic phospholipid vesicle lysis (calcein leakage) assay; details: SSA 1.5 mM, in words; for time dependence of vesicle lysis: 15 min vs 30 s, E. coli-based vesicles
# Method: Here, samples of phospholipid vesicles containing the fluorescent dye calcein were prepared. At internal vesicle concentrations, this dye undergoes self-quenching. […] The increase in fluorescence output is proportional to the % of vesicle lysis observed upon the addition of SSAs 1–14, when calibrated against a solution of vesicles know to have undergone 100% lysis, see Fig. 5.
# Fig. 5 The average (n = 3) percentage lysis (%) of vesicles (30 μM) composed of five different lipid compositions (Table 2), with an internal calcein concentration of 70 mM at 298 K. The % vesicle lysis was calculated through observation of increasing fluorescence emission (λem = 515 nm), following the addition of SSAs […] (1.5 mM) in a H2O/EtOH 95 : 5 solution after: (a) 30 s and; (b) 15 min. Triton X-100 (1%) was used as a positive control for 100% vesicle lysis. Data normalised to the addition of a H2O/EtOH 95 : 5 solution. Red = PC, yellow = PG, green = PE-PG mix, blue = E. coli total, pink = E. coli polar. Error = standard error.
# Section 2: General Methods […]
# Preparation of vesicles: All lipids were purchased as powder stocks from Avanti Polar Lipids. Lipid vesicles were prepared according to standard procedures.1 Each phospholipid was dissolved in chloroform (~ 10 mL) and the solvent was removed under reduced pressure. The thin film of dried lipid was further dried in vacuo for at least 2 hours. Lipid films were resuspended in the desired buffer and subjected to 9 freeze-thaw cycles in liquid nitrogen and extruded 20 times through a 200 nm […]
# Preparation of calcein loaded vesicles: Lipid films were resuspended in buffer A (70 mM calcein, 10 mM TRIS pH 8.5, 0.5 mM EDTA, 110 mM NaCl, pH adjusted to 6-7) and subjected to 9 freeze-thaw cycles in liquid nitrogen and extruded 20 times through a 200 nm polycarbonate membrane. The suspension was run down a size exclusion column packed with sephadex G-50 using buffer B (10 mM TRIS pH 8.5, 0.5 mM EDTA, 110 mM NaCl). The hydrodynamic dimeter of the lipids was monitored using an Anton Paar LitesizerTM 500 to ensure the separation of free and entrapped calcein.
# Phospholipid concentration was adjusted to 30 µM for vesicle leakage experiments.
# Vesicle leakage assay: Black bottom 96-well plates were prepared with the appropriate lipid solution (100 µL, 30 µM) and desired SSA solution (100 µL) prepared in H2O/EtOH 95: 5. A solution of 1 % Triton X-100 (16) was used for a 100 % lysis control and a H2O/EtOH 95: 5 solution was used as a 0 % lysis control. Fluorescent measurements were taken at 25 °C using an excitation value of 495 nm and an optimised gain of 983. Data were acquired in endpoint mode. All experiments were repeated in triplicate to ensure experimental reproducibility. […]
# Data
SMILES,SSA: phospholipid vesicle interaction / selectivity (FP titration) [1],time dependence of vesicle lysis [2],"vesicle lysis activity ([2]; thirty seconds after SSA addition, five vesicle types)"
Cc1ccc2nc(-c3ccc(NC(=O)NCS(=O)(=O)O)cc3)sc2c1 [SSA 6],"limited selectivity with a preference for PC, PG and E. coli polar over the E. coli total and PG : PE mix",time dependent enhancement of vesicle lysis,–
O=C(NCS(=O)(=O)O)Nc1ccc(-c2nc3ccccc3s2)cc1 [SSA 8],little selectivity for different phospholipid membranes,time dependent enhancement of vesicle lysis,–
Cc1ccc2nc(-c3ccc(NC(=O)NCCC(=O)O)cc3)sc2c1 [SSA 9],–,time dependent enhancement of vesicle lysis,–
Cc1ccc2nc(-c3ccc(NC(=O)NCCCS(=O)(=O)O)cc3)sc2c1 [SSA 10],little selectivity for different phospholipid membranes,time dependent enhancement of vesicle lysis,–
Cc1ccc2nc(-c3ccc(NC(=O)NCC(=O)O)cc3)sc2c1 [SSA 11],–,–,"general surfactant type properties, similar to that of Triton"
Cc1ccc2nc(-c3ccc(NC(=S)NCS(=O)(=O)O)cc3)sc2c1 [SSA 12],strong interaction with all phospholipid vesicles tested,–,–

# Reference: PMC9400670, “Establishing the selective phospholipid membrane coordination, permeation and lysis properties for a series of ‘druggable’ supramolecular self-associating antimicrobial amphiphiles” (Chemical Science, 2022)
